Values quoted from earlier work in patent publication US20250000839A1, “PHARMACEUTICAL COMPOSITION COMPRISING ENAVOGLIFLOZIN” (DAEWOONG PHARMACEUTICAL CO., LTD., priority 2021, published 2025).

What was measured:
[1] = at a very low dose of 1/100th of the dose compared to the same class of drugs
[2] = phase 2 clinical trials; 0.1 mg, 0.3 mg and 0.5 mg groups
human SGLT2 = target: T1, human SGLT2 (Homo sapiens, UniProt P31639); conditions: disclosed in U.S. Patent Publication No. 2015/0152075
T1 sequence (P31639 1-672): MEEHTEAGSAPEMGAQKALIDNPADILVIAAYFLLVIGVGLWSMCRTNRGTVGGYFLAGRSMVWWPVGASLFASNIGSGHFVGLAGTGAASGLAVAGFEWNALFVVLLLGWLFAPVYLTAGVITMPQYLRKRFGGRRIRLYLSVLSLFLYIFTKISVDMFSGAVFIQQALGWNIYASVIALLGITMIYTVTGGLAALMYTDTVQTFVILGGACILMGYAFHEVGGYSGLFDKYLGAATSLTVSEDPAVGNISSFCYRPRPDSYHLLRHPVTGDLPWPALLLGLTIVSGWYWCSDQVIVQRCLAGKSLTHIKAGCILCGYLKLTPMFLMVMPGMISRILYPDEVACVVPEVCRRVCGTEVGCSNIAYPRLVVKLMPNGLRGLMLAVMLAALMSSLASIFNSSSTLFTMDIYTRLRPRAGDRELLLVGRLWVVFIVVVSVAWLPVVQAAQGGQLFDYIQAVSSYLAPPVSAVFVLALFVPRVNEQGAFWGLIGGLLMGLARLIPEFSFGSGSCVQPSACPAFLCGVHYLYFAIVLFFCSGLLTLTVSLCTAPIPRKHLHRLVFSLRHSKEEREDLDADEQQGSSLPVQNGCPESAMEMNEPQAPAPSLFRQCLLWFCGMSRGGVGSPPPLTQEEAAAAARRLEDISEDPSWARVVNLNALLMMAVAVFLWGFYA

- inhibitory effect on human SGLT2 activity (human SGLT2): excellent inhibitory effect
Structure (SMILES): OC[C@H]1O[C@@H](c2cc(Cc3ccc(C4CC4)cc3)c(Cl)c3c2CCO3)[C@H](O)[C@@H](O)[C@@H]1O [enavogliflozin, (2S,3R,4R,5S,6R)-2-(7-chloro-6-(4-cyclopropylbenzyl)-2,3-dihydrobenzofuran-4-yl)-6-(hydroxymethyl)tetrahydro-2H-pyran-3,4,5-triol]
- urinary sugar secretion (glucose excreted in urine) efficacy [1]: excellent
- blood sugar-lowering effect compared to the placebo [2]: statistically significant blood sugar-lowering effect
